Assay [1] addresses T1, Gamma-aminobutyric acid receptor subunit alpha-2 (Homo sapiens, UniProt P47869).
T1 sequence (P47869 whole entry): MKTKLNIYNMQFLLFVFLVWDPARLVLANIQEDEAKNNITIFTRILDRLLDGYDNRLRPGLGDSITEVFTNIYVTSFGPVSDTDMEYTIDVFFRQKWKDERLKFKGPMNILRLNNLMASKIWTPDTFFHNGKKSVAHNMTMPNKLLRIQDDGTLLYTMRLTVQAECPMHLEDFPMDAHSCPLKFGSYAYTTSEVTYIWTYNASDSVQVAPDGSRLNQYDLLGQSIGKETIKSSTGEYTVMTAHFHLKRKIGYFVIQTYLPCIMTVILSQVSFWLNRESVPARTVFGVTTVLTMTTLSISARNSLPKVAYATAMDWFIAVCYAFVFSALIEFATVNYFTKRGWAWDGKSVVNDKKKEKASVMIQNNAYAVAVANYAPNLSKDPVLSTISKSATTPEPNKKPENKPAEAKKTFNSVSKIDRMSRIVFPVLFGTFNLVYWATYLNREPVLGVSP

Assay [2] has as its target T2, Gamma-aminobutyric acid receptor subunit alpha-5 (Homo sapiens, UniProt P31644).
T2 sequence (P31644 whole entry): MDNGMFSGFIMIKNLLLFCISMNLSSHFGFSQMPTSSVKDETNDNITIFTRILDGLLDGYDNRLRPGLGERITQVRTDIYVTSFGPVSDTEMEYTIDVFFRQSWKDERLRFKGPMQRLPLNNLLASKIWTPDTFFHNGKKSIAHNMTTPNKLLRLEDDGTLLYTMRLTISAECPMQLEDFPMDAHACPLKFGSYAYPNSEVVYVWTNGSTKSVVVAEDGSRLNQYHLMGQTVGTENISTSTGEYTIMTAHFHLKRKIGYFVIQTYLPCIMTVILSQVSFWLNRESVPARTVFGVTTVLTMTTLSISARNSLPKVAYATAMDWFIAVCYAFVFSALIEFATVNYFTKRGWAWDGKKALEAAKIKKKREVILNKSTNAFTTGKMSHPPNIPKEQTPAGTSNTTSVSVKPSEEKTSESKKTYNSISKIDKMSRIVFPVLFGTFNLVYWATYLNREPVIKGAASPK

Assay [3] has as its target T3, Gamma-aminobutyric acid receptor subunit alpha-1 (Homo sapiens, UniProt P14867).
T3 sequence (P14867 whole entry): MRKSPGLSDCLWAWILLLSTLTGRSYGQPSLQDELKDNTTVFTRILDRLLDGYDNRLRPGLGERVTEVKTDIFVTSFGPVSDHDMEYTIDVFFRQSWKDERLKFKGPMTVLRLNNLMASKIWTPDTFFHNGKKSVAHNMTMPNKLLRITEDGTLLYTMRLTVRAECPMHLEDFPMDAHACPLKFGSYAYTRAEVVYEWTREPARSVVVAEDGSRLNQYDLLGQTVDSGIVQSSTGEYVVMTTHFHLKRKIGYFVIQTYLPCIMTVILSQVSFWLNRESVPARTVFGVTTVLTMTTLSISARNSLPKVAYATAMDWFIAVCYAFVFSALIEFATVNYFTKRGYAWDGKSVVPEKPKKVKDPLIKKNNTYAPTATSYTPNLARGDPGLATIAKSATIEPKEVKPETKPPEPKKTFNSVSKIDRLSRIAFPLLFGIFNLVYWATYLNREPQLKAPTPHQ

The target of assay [4] is T4, Gamma-aminobutyric acid receptor subunit alpha-3 (Homo sapiens, UniProt P34903).
T4 sequence (P34903 whole entry): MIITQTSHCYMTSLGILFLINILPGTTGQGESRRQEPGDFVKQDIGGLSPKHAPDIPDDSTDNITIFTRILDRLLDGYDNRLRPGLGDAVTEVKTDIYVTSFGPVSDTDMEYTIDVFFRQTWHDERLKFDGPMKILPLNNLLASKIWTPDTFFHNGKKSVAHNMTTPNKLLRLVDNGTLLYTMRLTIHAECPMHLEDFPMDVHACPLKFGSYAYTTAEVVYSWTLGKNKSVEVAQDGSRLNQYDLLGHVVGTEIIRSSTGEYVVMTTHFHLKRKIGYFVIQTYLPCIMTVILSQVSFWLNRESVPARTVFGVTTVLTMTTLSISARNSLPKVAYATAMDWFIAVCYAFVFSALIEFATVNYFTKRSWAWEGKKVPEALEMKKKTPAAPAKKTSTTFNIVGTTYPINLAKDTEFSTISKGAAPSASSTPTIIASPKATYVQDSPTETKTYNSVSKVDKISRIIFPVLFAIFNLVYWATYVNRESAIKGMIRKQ

Bounds are passed on as bounds.

Turning to `Cc1nnc2ccc(-c3cccc(C(F)(F)F)c3)nn12`, the Ki (usually the equilibrium dissociation constant of an inhibitor or competing ligand from its target) stood at 2900 nM in assay [1], 1150 nM in assay [2], 290 nM in assay [3] and 3140 nM in assay [4].

As for `COC(=O)c1cc2c(cn1)[nH]c1ccccc12`, the Ki in assay [1] worked out at 6.5 nM; in assay [2], 76.4 nM; in assay [3] it was 2.2 nM; in assay [4], 9.2 nM.

As to `COCc1c(C(=O)OC(C)C)ncc2[nH]c3ccc(OCc4ccccc4)cc3c12`, the values for the Ki in assay [1], in assay [2] and in assay [4] were 4.4 nM, 8.4 nM and 7.1 nM, respectively.

With `CC(C)(C)OC(=O)c1ncn2c1C1CCCN1C(=O)c1c(Br)cccc1-2` (stereo not given) [8-Bromo-7-oxo-3b,4,5,6-tetrahydro-7H-2,6a,11b-triaza-benzo[g]cyclopenta[e]azulene-3-carboxylic acid tert-butyl ester], the Ki in assay [1] came to 1.2 nM; in assay [2], 2.4 nM; in assay [3], 1.2 nM; in assay [4] it was 1.3 nM.

With `Cc1ccc(-c2nc3ccc(C)cn3c2CC(=O)N(C)C)cc1` [Ambien], in assay [2], the Ki was above 10000 nM.

On to `CC(C)c1nc(-c2ncn3c2CN(C)C(=O)c2c(Cl)cccc2-3)no1` [FG 8205], for which the Ki came to 3.7 nM in assay [1], 6.4 nM in assay [2], 2.3 nM in assay [3] and 6.4 nM in assay [4].

In the case of `Cc1nnc2n1-c1ccc(Cl)cc1C(c1ccccc1Cl)=NC2` [Halcion], in assay [4], affinity was put at a Ki of 3 nM.

For the compound `CCOC(=O)c1ncn2c1CN(C)C(=O)c1cc(N=[N+]=[N-])ccc1-2` [RO-154513], the Ki in assay [1] came out at 10.4 nM; in assay [2] it was 0.7 nM; in assay [3] it was 10 nM; in assay [4], 7.8 nM.

These data come from BindingDB's records for PubMed 8391122 (Merck Sharp & Dohme Research Laboratories, 1993).
